From patent publication US4325974A, “β, γ-Dihydropolyprenyl alcohol and hypotensive pharmaceutical composition containing same” (Eisai Co., Ltd., priority 1978, dated 1982)

Legend:
[1] = test system: spontaneously hypertensive rats (SHR) of Okamoto and Aoki; assay: Hypotensive effect on spontaneously hypertensive rats (blood pressure, tail-cuff method; heart rate, tachometer); type: in vivo, rat (SHR of Okamoto and Aoki); conditions: 10 mg/kg oral
Protocol: I. The hypotensive effect of the formula (I) compound, according to the invention, on spontaneously hypertensive rats (hereinafter referred to as SHR) of Okamoto and Aoki:
The hypotensive effects of the test compounds on SHR of Okamoto and Aoki of about 35 weeks age were determined. The systolic blood pressure of the SHR was around 230 mmHg.
The test compounds were given to the SHR orally in the form of a suspension in aqueous acacia solution. The SHR were divided into a test compound group to which a test compound was administered and a control group to which only an aqueous acacia solution (free of test compound) was administered. Each group comprised three SHR.
The blood pressure of the SHR was measured with a Shimazu continuous tonometer SCS-301 (a product of Shimazu Seisakusho Co., Ltd.). Tail artery pressure was indirectly measured by a tail-cuff method.
The blood pressure was measured immediately before the administration and at 2, 4, 6 and 24 hours after the administration to determine the change in blood pressure with the passing of time.
The heart rate was determined by recording the pulse rate at the tail of the SHR with a tachometer of said tonometer […]. Test Compound and Dose
10 mg/kg (body weight of SHR)

[2] = test system: hepatic disease (hepatitis), induced by intraabdominal administration of D-galactosamine; assay: Effect on hepatic disease (hepatitis) induced by intraabdominal administration of D-galactosamine; type: in vivo; conditions: SD rats
Protocol: II. The effects of the formula (I) compound, according to the invention, on hepatic disease (hepatitis), induced by intraabdominal administration of D-galactosamine.
SD rats weighing about 250 g were used as test animals. D-Galactosamine hydrochloride (250 mg/kg each administration) and the test compound (50 mg/kg each administration) were administered intraabdominally to the rats on the schedule of experiments set forth below. After completion of the administration, blood was drawn from the test animals. The GPT value and alkali phosphatase value of the blood, which are indexes of the hepatic disease, were determined.
The test compound was used in the form of a suspension in 5% aqueous acacia solution. D-Galactosamine hydrochloride was used in the form of an aqueous solution thereof in distilled water, which solution was adjusted to pH 7 with potassium hydroxide. The rats were divided into three groups, i.e., a test compound group (comprising 9 rats) to which the test compound was administered, a control group (comprising 14 rats) to which 5% aqueous acacia solution free of the test compound was administered and a normal group (comprising 9 rats) to which neither the test compound nor D-galactosamine hydrochloride was administered. [drawing 9]

In the case of CC(C)=CCCC(C)=CCCC(C)=CCCC(C)=CCCC(C)=CCCC(C)=CCCC(C)=CCCC(C)=CCCC(C)=CCCC(C)CCO (centres unmarked) [test compound, 3,7, 11, 15, 19, 23, 27, 31, 35, 39-Decamethyl-6, 10, 14, 18, 22, 26, 30, 34, 38-tetracontanonaene-1-ol], the “blood pressure two hours after the administration” value ([1]; 2 h, before administration 227±7 mmHg) is reported as 207±9 mmHg, the “blood pressure six hours after the administration” value ([1]; 6 h, before administration 227±7 mmHg, control 232±7 mmHg at 6 h) is reported as 202±12 mmHg and the “blood pressure 24 hours after the administration” value ([1]; 24 h, before administration 227±7 mmHg) is reported as 212±9 mmHg. For the same molecule, the “effect on the heart rate” value ([1]; result in words) was “No effect on the heart rate was observed”, the hypotensive effect ([1]; result in words) was “clear, long-lasting hypotensive effect” and the “effect on hepatic disease induced by D-galactosamine hydrochloride” value ([2]; 50 mg/kg each intraabdominal, result in words) was “ameliorated or prevented”. The Alkali phosphatase value ([2]; test compound 50 mg/kg each and D-galactosamine hydrochloride 250 mg/kg each, intraabdominal, control 70.9 ± 3.9, normal 32.3 ± 2.5) was 63.7 ± 4.3 KA-U and the “GPT Value” ([2]; test compound 50 mg/kg each and D-galactosamine hydrochloride 250 mg/kg each, intraabdominal, control 1041.4 ± 200.8, normal 46.5 ± 4.9) was 523.3 ± 111.7 Carmen unit.
